In PubChem BioAssay (NCI):
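The compound was tested at five concentrations on cells cultured in 96-well plates, with a 48-hour exposure period. TGI marks complete inhibition of growth.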

Legend:
Assay in all cases: growth of human tumour cells (NCI), 48 h
786-0 renal = tested on: 786-0 renal
A498 renal = tested on: A498 renal
A549 NSCLC = tested on: A549 NSCLC
ACHN renal = tested on: ACHN renal
CAKI-1 renal = tested on: CAKI-1 renal
CCRF-CEM leukemia = tested on: CCRF-CEM leukemia
COLO 205 colon = tested on: COLO 205 colon
DU-145 prostate = tested on: DU-145 prostate
EKVX NSCLC = tested on: EKVX NSCLC
HCC-2998 colon = tested on: HCC-2998 colon
HCT-116 colon = tested on: HCT-116 colon
HCT-15 colon = tested on: HCT-15 colon
HL-60(TB) leukemia = tested on: HL-60(TB) leukemia
HOP-62 NSCLC = tested on: HOP-62 NSCLC
HOP-92 NSCLC = tested on: HOP-92 NSCLC
HS 578T breast = tested on: HS 578T breast
HT29 colon = tested on: HT29 colon
IGROV1 ovarian = tested on: IGROV1 ovarian
K-562 leukemia = tested on: K-562 leukemia
KM12 colon = tested on: KM12 colon
LOX IMVI melanoma = tested on: LOX IMVI melanoma
M14 melanoma = tested on: M14 melanoma
MALME-3M melanoma = tested on: MALME-3M melanoma
MCF7 breast = tested on: MCF7 breast
MDA-MB-231 breast = tested on: MDA-MB-231 breast
MDA-MB-435 = tested on: MDA-MB-435
MDA-N = tested on: MDA-N
MOLT-4 leukemia = tested on: MOLT-4 leukemia
NCI-H226 lung = tested on: NCI-H226 lung
NCI-H23 lung = tested on: NCI-H23 lung
NCI-H460 lung = tested on: NCI-H460 lung
NCI-H522 lung = tested on: NCI-H522 lung
NCI/ADR-RES ovarian = tested on: NCI/ADR-RES ovarian
OVCAR-3 ovarian = tested on: OVCAR-3 ovarian
OVCAR-4 ovarian = tested on: OVCAR-4 ovarian
OVCAR-5 ovarian = tested on: OVCAR-5 ovarian
OVCAR-8 ovarian = tested on: OVCAR-8 ovarian
PC-3 prostate = tested on: PC-3 prostate
RPMI-8226 leukemia = tested on: RPMI-8226 leukemia
RXF 393 renal = tested on: RXF 393 renal
SF-268 CNS = tested on: SF-268 CNS
SF-295 CNS = tested on: SF-295 CNS
SF-539 CNS = tested on: SF-539 CNS
SK-MEL-2 melanoma = tested on: SK-MEL-2 melanoma
SK-MEL-28 melanoma = tested on: SK-MEL-28 melanoma
SK-MEL-5 melanoma = tested on: SK-MEL-5 melanoma
SK-OV-3 ovarian = tested on: SK-OV-3 ovarian
SN12C renal = tested on: SN12C renal
SNB-19 CNS = tested on: SNB-19 CNS
SNB-75 CNS = tested on: SNB-75 CNS
SR leukemia = tested on: SR leukemia
SW-620 colon = tested on: SW-620 colon
T-47D breast = tested on: T-47D breast
TK-10 renal = tested on: TK-10 renal
U251 CNS = tested on: U251 CNS
UACC-257 melanoma = tested on: UACC-257 melanoma
UO-31 renal = tested on: UO-31 renal
BT-549 breast = tested on: BT-549 breast
UACC-62 melanoma = tested on: UACC-62 melanoma

Measured: TGI

COC(=O)[C@H](Cc1ccccc1)NP(=O)(O)OCC1OC(n2cc(C)c(=O)[nH]c2=O)CC1N=[N+]=[N-] (stereo partly specified)
not listed: BT-549 breast | UACC-62 melanoma
> 100 µM: all other assays above

COC1OC(CBr)C(OC(c2ccccc2)(c2ccccc2)c2ccccc2)C(OC(c2ccccc2)(c2ccccc2)c2ccccc2)C1OC(c1ccccc1)(c1ccccc1)c1ccccc1 (stereo unspecified)
60.8 µM: OVCAR-4 ovarian
28.6 µM: OVCAR-3 ovarian
70.2 µM: EKVX NSCLC
36.8 µM: UO-31 renal
96.3 µM: NCI-H226 lung
68.7 µM: SF-539 CNS
89.4 µM: HS 578T breast
40.8 µM: NCI-H522 lung
52.4 µM: HOP-92 NSCLC
60.7 µM: SK-OV-3 ovarian
not listed: MDA-MB-231 breast | PC-3 prostate | SK-MEL-2 melanoma | SNB-75 CNS | U251 CNS
> 100 µM: all other assays above
